Experimental findings from ChEMBL document CHEMBL4190351, “Synthesis and biological evaluation of novel 6,11-dihydro-5H-benzo[e]pyrimido- [5,4-b][1,4]diazepine derivatives as potential c-Met inhibitors” (Eur J Med Chem, 2017) are described below.

The target of test [1] is Hepatocyte growth factor receptor (Homo sapiens, UniProt P08581). The experiment in a line: Inhibition of cMet (unknown origin) using poly(Glu, Tyr)4:1 substrate and ATP incubated fro 60 mins by ELISA.
A further test has as its system PC-3. The test is described as follows: Cytotoxicity in human PC3 cells incubated for 72 hrs by sulforhodamine B assay. Conditions: PC-3, 72 h. (In SRB staining, fixed cells bind dye roughly in proportion to their protein.)
A further test deals with CAKI-1. The experiment in a line: Cytotoxicity in human Caki1 cells incubated for 72 hrs by sulforhodamine B assay. Conditions: CAKI-1, 72 h.
The subject of another test is HepG2. The experiment in a line: Cytotoxicity in human HepG2 cells incubated for 72 hrs by sulforhodamine B assay. Conditions: HepG2, 72 h.
The test system of another test is PANC-1. The experiment in a line: Cytotoxicity in human PANC1 cells incubated for 72 hrs by sulforhodamine B assay. Conditions: PANC-1, 72 h.

For orientation: IC50 means the concentration that inhibits the measured activity by half. A high value points to a need for much substance.

Hepatocyte growth factor receptor, sequence (P08581 whole entry): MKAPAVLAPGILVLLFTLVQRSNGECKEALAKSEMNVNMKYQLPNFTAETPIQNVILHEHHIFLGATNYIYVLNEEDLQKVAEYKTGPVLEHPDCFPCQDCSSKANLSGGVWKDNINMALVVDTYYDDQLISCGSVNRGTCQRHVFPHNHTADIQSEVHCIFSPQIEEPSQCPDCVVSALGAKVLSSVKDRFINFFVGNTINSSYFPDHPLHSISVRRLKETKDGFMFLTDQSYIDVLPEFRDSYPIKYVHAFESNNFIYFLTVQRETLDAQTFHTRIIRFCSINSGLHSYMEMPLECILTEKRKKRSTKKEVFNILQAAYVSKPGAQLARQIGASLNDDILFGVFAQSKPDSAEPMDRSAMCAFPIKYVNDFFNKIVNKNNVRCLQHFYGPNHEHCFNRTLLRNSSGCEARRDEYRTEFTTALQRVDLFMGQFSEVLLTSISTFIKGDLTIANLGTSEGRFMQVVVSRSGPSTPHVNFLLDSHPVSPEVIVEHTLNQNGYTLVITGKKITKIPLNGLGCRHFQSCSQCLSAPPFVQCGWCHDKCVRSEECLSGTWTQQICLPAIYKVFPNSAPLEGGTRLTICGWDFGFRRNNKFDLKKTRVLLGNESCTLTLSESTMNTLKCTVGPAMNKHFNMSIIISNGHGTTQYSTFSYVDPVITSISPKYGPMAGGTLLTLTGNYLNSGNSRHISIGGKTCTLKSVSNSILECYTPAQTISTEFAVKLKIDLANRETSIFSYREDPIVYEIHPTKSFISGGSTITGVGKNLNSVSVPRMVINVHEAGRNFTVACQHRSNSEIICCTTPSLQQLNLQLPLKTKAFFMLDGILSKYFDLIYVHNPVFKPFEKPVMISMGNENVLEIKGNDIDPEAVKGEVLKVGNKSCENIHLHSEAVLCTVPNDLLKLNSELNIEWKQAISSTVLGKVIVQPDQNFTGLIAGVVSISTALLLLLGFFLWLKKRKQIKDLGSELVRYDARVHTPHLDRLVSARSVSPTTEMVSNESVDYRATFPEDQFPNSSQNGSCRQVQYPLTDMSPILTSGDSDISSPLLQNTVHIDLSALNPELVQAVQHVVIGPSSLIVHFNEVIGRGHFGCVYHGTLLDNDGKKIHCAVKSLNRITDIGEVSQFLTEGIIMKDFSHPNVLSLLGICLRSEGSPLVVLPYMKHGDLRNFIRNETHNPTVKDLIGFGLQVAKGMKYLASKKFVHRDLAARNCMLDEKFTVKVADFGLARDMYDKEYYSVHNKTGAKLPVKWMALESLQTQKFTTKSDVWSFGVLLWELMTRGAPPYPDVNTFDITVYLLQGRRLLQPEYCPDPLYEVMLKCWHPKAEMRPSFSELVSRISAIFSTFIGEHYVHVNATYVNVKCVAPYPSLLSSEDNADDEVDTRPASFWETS

The compound `COc1cc2c(cc1OC)Nc1nccc(Oc3ccc(NC(=O)C4(C(=O)Nc5ccc(F)cc5)CC4)cc3)c1N=C2` registered an IC50 in test [1] greater than 1000 nM.

The compound `COc1cc2c(cc1OC)Nc1ncnc(Oc3ccc(NC(=O)C4(C(=O)Nc5ccc(F)cc5)CC4)cc3F)c1N(C)C2` yielded an IC50 in test [1] greater than 1000 nM.

Consider `COc1cc2c(cc1OC)Nc1ncnc(Oc3ccc(NC(=O)C4(C(=O)Nc5ccc(F)cc5)CC4)cc3F)c1N=C2`, for which the IC50 in the test with PC-3 came to 1610 nM; in the test with CAKI-1 it was 864 nM; in the test on HepG2, 1340 nM; in the test on PANC-1 it was 1660 nM. In the case of `O=C(Nc1ccc(F)cc1)C1(C(=O)Nc2ccc(Oc3ncnc4c3NCc3ccccc3O4)cc2)CC1`, in test [1], the IC50 was greater than 1000 nM.

In turn, `COc1cc2c(cc1OC)Nc1nccc(Oc3ccc(NC(=O)C4(C(=O)Nc5ccc(F)cc5)CC4)cc3)c1NC2` displayed an IC50 in test [1] greater than 1000 nM. In test [1], `COc1cc2c(cc1OC)C(=O)Nc1c(ncnc1Oc1ccc(NC(=O)C3(C(=O)Nc4ccc(F)cc4)CC3)cc1F)N2` displayed an IC50 greater than 1000 nM. Take `COc1cc2c(cc1OC)C(=O)Nc1c(Oc3ccc(NC(=O)C4(C(=O)Nc5ccc(F)cc5)CC4)cc3F)ccnc1N2`: the IC50 in test [1] is greater than 1000 nM. Compound `COc1cc2c(cc1OC)Nc1nccc(Oc3ccc(NC(=O)C4(C(=O)Nc5ccc(F)cc5)CC4)cc3F)c1N=C2` had an IC50 in test [1] greater than 1000 nM. Turning to `COc1cc2c(cc1OC)Nc1ncnc(Oc3ccc(NC(=O)C4(C(=O)Nc5ccc(F)cc5)CC4)cc3)c1NC2`, the IC50 with PC-3 amounted to 7120 nM; in the test on CAKI-1, 1470 nM; with HepG2, 4910 nM; with PANC-1 it was 5340 nM. Compound `COc1ccc2c(c1)CNc1c(nc(C)nc1Oc1ccc(NC(=O)C3(C(=O)Nc4ccc(F)cc4)CC3)cc1)N2` showed an IC50 in test [1] greater than 1000 nM.
